Assay results published in US20090226527A1, “Particulate-stabilized injectable pharmacutical compositions of posaconazole” (priority 2004, published 2009).
≈ marks a conversion by molar mass, not a printed value. Where “and” joins values, the source holds several entries; their conditions need not be identical. Identical values can stand only once. Like-named read-outs stand apart in the source and are kept apart here.

System: infectious agents (strains tested)
Test: organism not typed
Type: cell-based

OC(Cn1cncn1)(Cn1cncn1)c1ccc(F)cc1F [FLZ]
Geometric Mean MIC: 16.450 mg/L and 19.027 mg/L
Geometric Mean MIC (Absidia spp): 143.675 mg/L
Geometric Mean MIC (Apophysomyces spp): 128.000 mg/L
MIC[90] (Apophysomyces spp): (128.0) μg/mL
Geometric Mean MIC (Aspergillus flavus): 220.898 mg/L
MIC[90] (Aspergillus fumigatus): 512.0 mg/L (≈ 1670 µM)
Geometric Mean MIC (Aspergillus nidulans): 76.109 mg/L
MIC[90] (Aspergillus nidulans): (32.0-128.0) μg/mL
Geometric Mean MIC (Aspergillus niger): 234.753 mg/L
Geometric Mean MIC (Aspergillus sydowii): 115.933 mg/L
Geometric Mean MIC (Aspergillus terreus): 208.327 mg/L
Geometric Mean MIC (Aspergillus ustus): 172.275 mg/L
Geometric Mean MIC (Bipolaris spp): 64.000 mg/L
MIC[90] (Bipolaris spp): (64.0) μg/mL
Geometric Mean MIC (Bjerkandera adusta): 4.000 mg/L
MIC[90] (Bjerkandera adusta): 4.0 mg/L (≈ 13.1 µM)
Geometric Mean MIC (Blastomyces dermatitidis): 2.191 mg/L
MIC[90] (Blastomyces dermatitidis): 16.0 mg/L (≈ 52.2 µM)
Geometric Mean MIC (Candida albicans): 0.415 mg/L
MIC[90] (Candida albicans): 2.0 mg/L (≈ 6.53 µM)
Geometric Mean MIC (Candida dubliniensis): 0.454 mg/L
MIC[90] (Candida dubliniensis): 32.0 mg/L (≈ 104 µM)
Geometric Mean MIC (Candida famata): 4.084 mg/L
MIC[90] (Candida famata): 32.0 mg/L (≈ 104 µM)
Geometric Mean MIC (Candida glabrata): 9.719 mg/L
MIC[90] (Candida glabrata): 64.0 mg/L (≈ 209 µM)
Geometric Mean MIC (Candida guilliermondii): 4.000 mg/L
MIC[90] (Candida guilliermondii): 32.0 mg/L (≈ 104 µM)
Geometric Mean MIC (Candida kefyr): 0.500 mg/L
MIC[90] (Candida kefyr): 4.0 mg/L (≈ 13.1 µM)
Geometric Mean MIC (Candida krusei): 32.521 mg/L
MIC[90] (Candida krusei): 64.0 mg/L (≈ 209 µM)
Geometric Mean MIC (Candida lusitaniae): 0.627 mg/L
MIC[90] (Candida lusitaniae): 2.0 mg/L (≈ 6.53 µM)
Geometric Mean MIC (Candida parapsilosis): 0.910 mg/L
MIC[90] (Candida parapsilosis): 2.0 mg/L (≈ 6.53 µM)
Geometric Mean MIC (Candida rugosa): 3.391 mg/L
MIC[90] (Candida rugosa): 16.0 mg/L (≈ 52.2 µM)
Geometric Mean MIC (Candida tropicalis): 0.961 mg/L
MIC[90] (Candida tropicalis): 4.0 mg/L (≈ 13.1 µM)
Geometric Mean MIC (Candida zeylanoides): 0.354 mg/L
MIC[90] (Candida zeylanoides): (0.125-1.0) μg/mL
Geometric Mean MIC (Cryptococcus laurentii): 5.040 mg/L
MIC[90] (Cryptococcus laurentii): (4.0-8.0) μg/mL
Geometric Mean MIC (Cryptococcus neoformans): 1.781 mg/L
MIC[90] (Cryptococcus neoformans): 8.0 mg/L (≈ 26.1 µM)
Geometric Mean MIC (Curvularia spp): 16.000 mg/L
MIC[90] (Curvularia spp): (16.0) μg/mL
Geometric Mean MIC (Epidermophyton floccosum): 1.447 mg/L
MIC[90] (Epidermophyton floccosum): 2.0 mg/L (≈ 6.53 µM)
Geometric Mean MIC (Exophiala dermatidis): 8.000 mg/L
MIC[90] (Exophiala dermatidis): (8.0) μg/mL
Geometric Mean MIC (Fonsecae pedrosoi): 64.000 mg/L
MIC[90] (Fonsecae pedrosoi): (64.0) μg/mL
Geometric Mean MIC (Kluyveromyces marxianus): 0.500 mg/L
MIC[90] (Kluyveromyces marxianus): (0.25-1.0) μg/mL
Geometric Mean MIC (Microsporum canis): 2.000 mg/L
MIC[90] (Microsporum canis): 4.0 mg/L (≈ 13.1 µM)
Geometric Mean MIC (Microsporum gypseum): 16.000 mg/L
MIC[90] (Microsporum gypseum): (4.0-128.0) μg/mL
Geometric Mean MIC (Microsporum persicolor): 128.000 mg/L
MIC[90] (Microsporum persicolor): (128.0) μg/mL
Geometric Mean MIC (Mucor spp): 207.937 mg/L
Geometric Mean MIC (Paecilomyces spp): 141.323 mg/L
Geometric Mean MIC (Paracoccidioides brasiliensis): 0.766 mg/L
MIC[90] (Paracoccidioides brasiliensis): 4.0 mg/L (≈ 13.1 µM)
Geometric Mean MIC (Penicillium spp): 220.996 mg/L
Geometric Mean MIC (Pichia anomala): 2.670 mg/L
MIC[90] (Pichia anomala): 4.0 mg/L (≈ 13.1 µM)
Geometric Mean MIC (Pichia etchel): 0.125 mg/L
MIC[90] (Pichia etchel): (0.125) μg/mL
Geometric Mean MIC (Pichia ohmeri): 4.000 mg/L
MIC[90] (Pichia ohmeri): (4.0) μg/mL
Geometric Mean MIC (Pseudallescheria boydii): 41.237 mg/L
MIC[90] (Pseudallescheria boydii): 128.0 mg/L (≈ 418 µM)
Geometric Mean MIC (Ramichloridium obovoideum): 22.627 mg/L
MIC[90] (Ramichloridium obovoideum): (16.0-32.0) μg/mL
Geometric Mean MIC (Rhizopus spp): 229.461 mg/L
Geometric Mean MIC (Saccharomyces cerevisiae): 2.845 mg/L
MIC[90] (Saccharomyces cerevisiae): 16.0 mg/L (≈ 52.2 µM)
Geometric Mean MIC (Scedosporium apiospermum): 84.449 mg/L
Geometric Mean MIC (Trichophyton mentagrophytes): 9.190 mg/L
MIC[90] (Trichophyton mentagrophytes): 64.0 mg/L (≈ 209 µM)
Geometric Mean MIC (Trichophyton raubitschekii): 128.000 mg/L
MIC[90] (Trichophyton raubitschekii): (128.0) μg/mL
Geometric Mean MIC (Trichophyton rubrum): 4.407 mg/L
MIC[90] (Trichophyton rubrum): 32.0 mg/L (≈ 104 µM)
Geometric Mean MIC (Trichophyton soudanense): 128.000 mg/L
MIC[90] (Trichophyton soudanense): (128.0) μg/mL
Geometric Mean MIC (Trichophyton terrestre): 1.000 mg/L
MIC[90] (Trichophyton terrestre): (1.0) μg/mL
Geometric Mean MIC (Trichophyton tonsurans): 3.775 mg/L
MIC[90] (Trichophyton tonsurans): 32.0 mg/L (≈ 104 µM)
Geometric Mean MIC (Trichosporon spp): 12.699 mg/L
MIC[90] (Trichosporon spp): (4.0-64.0) μg/mL
Geometric Mean MIC (Yarrowia lipolytica): 1.741 mg/L
MIC[90] (Yarrowia lipolytica): (0.125-32.0) μg/mL
